A word on the pIC50: it is the negative decadic logarithm of the IC50, by convention in mol/L.

The results in this text go back to ChEMBL document CHEMBL2321649 (Bioorg Med Chem, 2013).

In one test the test system is B16. Put plainly: Cytotoxicity against mouse B16 cells after 48 hrs by MTT assay. In kind it is functional, cell-based. To be noted: B16, 48 h. In general terms: Tetrazolium dyes change colour on reduction, which living cells bring about.
A short description of test [1]: Antivascular activity against human EAhy926 cells assessed as rounding up morphology after 2 hrs by microscopic analysis. To be noted: EA.hy 926, 2 h, read-out: MEC. Type of test: functional.
The next test deals with Tubulin. Put plainly: Inhibition of tubulin (unknown origin) assessed as inhibition of GTP-induced polymerization incubated for 45 mins prior to GTP-addition measured after 2 hrs by DAPI-staining based fluorimetric analysis. Type of test: protein-complex assay, Homo sapiens.

pIC50: −log10 of the molar value.

`COc1ccc(/C=C\c2cc(OC)c(OC)c(OC)c2)cc1O` [COMBRETASTATIN A4] gave a pIC50 in the test with B16 of 8.52. Further, in test [1], the minimal effective concentration was determined as 0.006 µM.

Consider `COc1cc([C@@H]2C[C@@H]2/C=C/c2ccccc2)cc(OC)c1OC`, for which the pIC50 with B16 is 6.24; at Tubulin it was 5.89. In test [1], the minimal effective concentration was 0.5 µM.

As to `COc1ccc(C2CC2c2cc(OC)c(OC)c(OC)c2)cc1O` (racemic), the pIC50 is 6.49 in the test with B16 and 6.00 at Tubulin. For the same compound, the minimal effective concentration in test [1] came to 0.12 µM.

`COc1ccc(C2CC2c2cc(OC)c(OC)c(OC)c2)cc1[N+](=O)[O-]` (racemic): the pIC50 is 4.81 with B16 and 4.58 at Tubulin. Moreover, the minimal effective concentration in test [1] came to 3.13 µM.

With `COc1ccc([C@H]2C[C@H]2c2cc(OC)c(OC)c(OC)c2)cc1O`, the pIC50 in the test with B16 was 6.28; on Tubulin it was 5.17. The minimal effective concentration in test [1] was found to be 0.5 µM.

Regarding `COc1ccc([C@@H]2C[C@@H]2c2cc(OC)c(OC)c(OC)c2)cc1O`, the pIC50 in the test with B16 and at Tubulin was 6.52 each time. Also, the minimal effective concentration in test [1] came to 0.12 µM.

In the case of `COc1cc(C2CC2/C=C/c2ccccc2)cc(OC)c1OC` (racemic), the negative-log IC50 (pIC50) was 6.21 with B16 and 5.74 on Tubulin. Moreover, the minimal effective concentration in test [1] was determined as 0.5 µM.

Take `COc1cc([C@H]2C[C@H]2/C=C/c2ccccc2)cc(OC)c1OC`: the negative-log IC50 (pIC50) in the test on B16 was 5.56; on Tubulin it was 5.35. Besides, the minimal effective concentration in test [1] came to 3.13 µM.

On to `COc1ccc(C2CC2c2cc(OC)c(OC)c(OC)c2)cc1N` (racemic), for which the figures for the pIC50 with B16 and on Tubulin were 6.54 and 5.55, respectively. For the same compound, the minimal effective concentration in test [1] stood at 0.12 µM.
